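Five concentrations, 48 hours, 96-well plates. GI50 = concentration required for 50% inhibition of growth.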 Calls of active or inactive are those of the source. Cut-off read from the data, not from the text of the source: active = GI50 up to about 1.1 µM and inactive = higher.
Columns and labels:
Assay in all cases: DTP human tumour cell line panel, 48 h
MOLT-4 = test system: MOLT-4
HT-29 = test system: HT-29
SK-MEL-5 = test system: SK-MEL-5
OVCAR-3 = test system: OVCAR-3
K562 = test system: K562
NCI-H460 = test system: NCI-H460
SF-539 = test system: SF-539
TK-10 = test system: TK-10
IGROV-1 = test system: IGROV-1
NCI-H226 = test system: NCI-H226
MDA-MB-435 = test system: MDA-MB-435
HOP-62 = test system: HOP-62
PC-3 = test system: PC-3
NCI-H23 = test system: NCI-H23
A549 = test system: A549
UO-31 = test system: UO-31
OVCAR-4 = test system: OVCAR-4
SNB-19 = test system: SNB-19
EKVX = test system: EKVX
NCI/ADR-RES = test system: NCI/ADR-RES

Measured: GI50

CCOP(=O)(OCC)/C(C#N)=C/c1cn(C)cn1
inactive: MOLT-4 > 10 µM | HT-29 > 100 µM | SK-MEL-5 > 10 µM | OVCAR-3 > 100 µM | K562 > 100 µM | NCI-H460 > 100 µM | SF-539 > 100 µM | TK-10 > 100 µM | IGROV-1 > 100 µM | NCI-H226 > 100 µM | MDA-MB-435 > 100 µM | HOP-62 > 100 µM | PC-3 > 100 µM | NCI-H23 > 100 µM | A549 > 100 µM | UO-31 > 100 µM | OVCAR-4 > 100 µM | SNB-19 > 100 µM | EKVX > 100 µM | NCI/ADR-RES > 100 µM
